These results are taken from ChEMBL document CHEMBL4831497, “Monoacylglycerol lipase (MAGL) inhibitors based on a diphenylsulfide-benzoylpiperidine scaffold” (Eur J Med Chem, 2021).

Active and inactive are the calls of the source. No cut-off for these calls is given here.

The test system of one assay is COLO 201. The experiment in a line: Antiproliferative activity against human COLO201 cells assessed as inhibition of cell viability for 96 hrs by cell titre glo luminescence assay. The class given is functional, cell-based. The conditions noted are these: COLO 201, 96 h.
In the next assay the test system is HCT-116. The experiment in a line: Antiproliferative activity against human HCT-116 cells assessed as inhibition of cell viability for 96 hrs by cell titre glo luminescence assay. The conditions noted are these: HCT-116, 96 h. The format is functional, cell-based.
A further assay deals with KURAMOCHI
As to the kind of experiment: Antiproliferative activity against human KURAMOCHI cells assessed as inhibition of cell viability for 96 hrs by cell titre glo luminescence assay. The class given is functional, cell-based.

For a further assay, the system named is SK-OV-3. The experiment in a line: Antiproliferative activity against human SK-OV-3 cells assessed as inhibition of cell viability for 96 hrs by cell titre glo luminescence assay. The format is functional, cell-based. The conditions noted are these: SK-OV-3, 96 h.
A further assay deals with COLO 205. As to the kind of experiment: Antiproliferative activity against human COLO205 cells assessed as inhibition of cell viability for 96 hrs by cell titre glo luminescence assay. The class given is functional, cell-based. The conditions noted are these: COLO 205, 96 h.
The test system of another assay is HT-29. As to the kind of experiment: Antiproliferative activity against human HT-29 cells assessed as inhibition of cell viability for 96 hrs by cell titre glo luminescence assay. The format is functional, cell-based. The conditions noted are these: HT-29, 96 h.
The subject of a further assay is OVCAR-3. The experiment in a line: Antiproliferative activity against human OVCAR-3 cells assessed as inhibition of cell viability for 96 hrs by cell titre glo luminescence assay. The class given is functional, cell-based. The note with it: OVCAR-3, 96 h.
The next assay concerns OVCAR-5. The experiment in a line: Antiproliferative activity against human OVCAR-5 cells assessed as inhibition of cell viability for 96 hrs by cell titre glo luminescence assay. The class given is functional, cell-based. The note with it: OVCAR-5, 96 h.
The subject of a further assay is MDA-MB-231. As to the kind of experiment: Antiproliferative activity against human MDA-MB-231 cells assessed as inhibition of cell viability for 96 hrs by cell titre glo luminescence assay. The format is functional, cell-based. The note with it: MDA-MB-231, 96 h.
Assay [1] has as its target T1, Monoglyceride lipase (Homo sapiens, UniProt Q99685).
T1 sequence (Q99685 whole entry): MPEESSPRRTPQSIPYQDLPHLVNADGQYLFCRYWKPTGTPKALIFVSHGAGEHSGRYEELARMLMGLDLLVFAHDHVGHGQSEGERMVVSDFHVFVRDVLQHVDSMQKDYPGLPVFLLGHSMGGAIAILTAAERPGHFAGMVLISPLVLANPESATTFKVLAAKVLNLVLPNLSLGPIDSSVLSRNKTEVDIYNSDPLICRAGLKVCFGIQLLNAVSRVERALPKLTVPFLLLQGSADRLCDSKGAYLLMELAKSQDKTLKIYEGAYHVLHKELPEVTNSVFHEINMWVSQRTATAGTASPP
Description: Inhibition of human recombinant MAGL assessed as dissociation constant using 4-NPA as substrate

Assay [2] deals with T2, Monoglyceride lipase (Homo sapiens) (UniProt Q99685).
T2 sequence (whole entry): T1 sequence (Q99685 whole entry)
The note with it: dose 8.0 nM, time 60.0 min.

Assay [3] concerns the target T1, Monoglyceride lipase. The source holds these as a separate data set.
Description: Inhibition of human recombinant MAGL using 4-NPA as substrate by microplate reader method
For assay [4], the target named is T2, Monoglyceride lipase (Homo sapiens). The conditions noted are these: dose 320.0 nM, time 60.0 min.

With `O=C(c1ccc(Cl)cc1)C1CCN(C(=O)c2cccc(O)c2)CC1`, the half-inhibitory concentration (IC50) in the assay with COLO 201 is 83 µM; in the assay on HCT-116 it was 86 µM; in the assay with KURAMOCHI, 75 µM; with SK-OV-3, 84 µM; with COLO 205 it was 79 µM; in the assay on HT-29 it was 6.9 µM. Also, the IC50 stood at 93 µM in the assay on OVCAR-3, 10 µM in the assay with OVCAR-5 and 71 µM with MDA-MB-231.

With `O=C(c1ccc(Sc2cccc(C(F)(F)F)c2)cc1)C1CCN(C(=O)c2cc(O)ccc2F)CC1`, the IC50 worked out at 2.9 µM in the assay with COLO 201; 3.3 µM with HCT-116; 3.3 µM in the assay on KURAMOCHI; 4.4 µM with SK-OV-3; 3.3 µM with COLO 205; 8.4 µM with HT-29. Further, the IC50 with OVCAR-3 is 5.7 µM; in the assay with OVCAR-5, 0.32 µM; in the assay with MDA-MB-231, 5.4 µM.

In the case of `O=C(c1ccc(Sc2cccc(OC(F)(F)F)c2)cc1)C1CCN(C(=O)c2cc(O)ccc2F)CC1`, on Monoglyceride lipase [1], the Ki is 0.00112 µM. Also, the inhibition result in assay [2] and in assay [4] was “Active” each time. Besides, the IC50 was determined as 3.3 µM with COLO 201; 3.4 µM in the assay with HCT-116; 3.7 µM in the assay on KURAMOCHI; 4.4 µM with SK-OV-3; 2.2 µM in the assay on COLO 205; 0.00186 µM at Monoglyceride lipase [3]. Moreover, the IC50 with HT-29 is 2.5 µM; with OVCAR-3, 8.6 µM; in the assay on OVCAR-5 it was 0.78 µM; with MDA-MB-231, 10 µM.

The compound `O=C(c1ccc(Sc2cccc(Cl)c2)cc1)C1CCN(C(=O)c2cc(O)ccc2F)CC1` registered a Ki on Monoglyceride lipase [1] of 0.00114 µM. Moreover, the inhibition result in assay [2] and in assay [4] was “Active” each time. The IC50 in the assay with COLO 201 was determined as 8.7 µM; in the assay with HCT-116, 7.6 µM; with KURAMOCHI, 7 µM; in the assay with SK-OV-3, 8.8 µM; with COLO 205 it was 8.7 µM; at Monoglyceride lipase [3] it was 0.0015 µM. For the same compound, the half-inhibitory concentration (IC50) in the assay on HT-29 worked out at 9 µM; with OVCAR-3 it was 12 µM; in the assay on OVCAR-5 it was 3.7 µM; with MDA-MB-231 it was 2.7 µM.
